In patent publication EP1641451B1, “METHOD FOR PHOTODYNAMIC INACTIVATION OF PATHOGENS USING ALA” (MACO PHARMA, priority 2003, dated 2005):

Legend:
Type in all cases: cell-based
Escherichia coli = assay: Bacterio-attenuation test in contaminated CPA, photodynamic treatment at 365 nm
Procedure: (§1) Les bactéries sont injectées dans les échantillons à une concentration finale de 1 bactérie pour 50 000 plaquettes. Les bactéries sont mises en culture dans un bouillon Thyoglycolate-Resazurine (ref: 42074, Biomérieux Marcy l'Etoile, France) (0,5 mL de suspension bactérienne en bouillon ou une colonie sur gélose dans 9 mL de bouillon). Elles sont incubées 24 h à 37°C pour qu'elles soient en phase de croissance lors de leur utilisation. Avant leur utilisation, le bouillon de culture est centrifugé à 2500 g pendant 10 min. à 21°C, le culot est repris dans du NaCl 0,9 % et celui-ci est lavé 3 fois à 2500 g pendant 10 min. à 21 °C.
(§2) Le titre bactérien de la suspension lavée et diluée est évalué par une lecture de densité optique à 630 nm. Une dilution de la suspension bactérienne est ensuite réalisée pour obtenir une concentration finale de 1 bactérie pour 50 000 plaquettes.
(§3) Pour réaliser les tests de bactério-atténuation, les CPA dilués sont aliquotés dans la solution SSP (MacoPharma, Tourcoing, France) pour obtenir une concentration finale en protéines de 10 g/L dans des poches en PVC. Puis 1 mL de suspension bactérienne est injecté. Le volume final contenu dans les poches est de 8 mL. Le tout est homogénéisé pour un meilleur contact entre les plaquettes et les bactéries.
(§4) L'illumination se fait à l'aide d'une lampe UVA comportant deux tubes (réf. VL-215BL, Vilber Lourmat, France) génératrice de rayons UV 365 nm et de lumière visible d'une intensité de 108 µW/cm^2 à une distance de 1 m de l'échantillon. La lampe est disposée à une distance de 13 cm des poches à traitées. L'illumination se fait à 4°C. La lampe délivre une dose de 23 J/cm^2 en 1 h.
(§5) Après illumination, une numération bactérienne est réalisée pour mesurer la diminution du tire bactérien dans les poches traitées. Pour cela, 1 mL de la dilution la plus appropriée est étalée sur des géloses nutritives Trypcase-soja (ref : 43011, boîtes de 90 mm de diamètre, Biomérieux, Marcy l'Etoile, France). Les géloses sont ensuite incubées 24 h à 37 °C pour pouvoir effectuer un comptage. Les résultats sont exprimés en ufc/mL.
Des tests de bactério-atténuation ont été effectués sur E. coli. Les tests sont réalisés sur des CPA ajustés à 10 g/L de protéines. Le nombre de plaquettes par poche de 8 ml est de 4,7 10^9.
Les poches sont incubées 1 h à 37°C avant d'être irradiées à 365 nm (Fig. 6).
Sans incubation, les résultats sont les suivants (Fig. 7) : […]

plaquettes [1] = assay: Platelet functionality: collagen aggregation test (thrombo-aggregometer, turbidimetry); details: for % d'aggrégation: CPA 10 g/L proteins
Procedure: (§6) Dans cet exemple, deux tests ont été effectués afin d'évaluer la fonctionnalité des plaquettes en présence de différentes concentrations d'ALA après illumination à l'aide des lampes UVA (365 nm).
Le second test est un test d'agrégation au collagène. Ce test est réalisé à l'aide d'un thrombo-agrégomètre (SEFAM, Regulest, Fleurange, France). L'activation plaquettaire par un agoniste (collagène) est estimée in vitro par turbidimétrie, en enregistrant en continu à 37°C et sous agitation, la transmission d'un faisceau de lumière à travers la suspension plaquettaire. Le regroupement des plaquettes en amas de plus en plus volumineux s'accompagne d'un éclaircissement progressif du milieu. Les résultats sont rendus en pourcentage d'agrégation en fonction du temps, le 100% d'agrégation correspondant au plasma pauvre en plaquettes et le 0% d'agrégation correspondant à l'échantillon avant l'ajout de l'agoniste. L'enregistrement de la transmission lumineuse est déclenché au moment de l'ajout d'un faible volume de l'agoniste à l'échantillon. Ainsi, nous pouvons visualiser le temps de latence, le changement de forme des plaquettes puis l'agrégation qui peut être stable ou réversible.
(§7) Ces deux tests ont été réalisés sur un CPA ajusté à 10 g/L de protéines en présence de concentration croissante d'ALA après 1 h30 d'illumination à 365 nm.
(§8) Le même test a été réalisé sans illumination (1 h30 d'agitation douce à l'obscurité)
(§9) Un test d'agrégation et une inspection visuelle du tournoiement ont été réalisées sur un CPA ajusté à 10 g/L de protéines en présence de PpX sel disodique dans du NaOH 1 N 0,1 % (après 30 minutes d'illumination à 365 nm). Le nombre de plaquettes par poche de 8 ml est de 7,6.10^9.

Klebsiella pneumoniae = assay: Bacterio-attenuation test in contaminated CPA, photodynamic treatment at 365 nm
Procedure: as §1, §2, §3, §4, §5
Des tests de bactério-atténuation ont été effectués sur Klebsiella pneumoniae. Les tests sont réalisés sur des CPA ajustés à 10 g/L de protéines. Le nombre de plaquettes par poche de 8 mL est de 10,5.10^9.
Les poches sont incubées 1h à température ambiante puis illuminées par irradiation à 365 nm (Fig. 4 et 5).

plaquettes [2] = assay: Platelet functionality: visual inspection of swirling (tournoiement) of the CPA; details: ALA 4 mM; CPA 10 g/L proteins; after 1 h30 illumination at 365 nm
Description: as §6
Le premier test est la visualisation du tournoiement ou « swirling », c'est-à-dire l'inspection visuelle du CPA à travers une source lumineuse (phénomène lié à la présence de formes discoïdes dans la suspension plaquettaire).
as §7, §8, §9

Molecule: NCC(=O)CCC(=O)O [ALA, acide 5-aminolévulinique]
- titre bactérien E. Coli (Escherichia coli; ALA 5 mM, Incub 1h at 37°C): 231 10^-2 ufc/ml
- titre bactérien E. Coli (Escherichia coli; ALA 5 mM, Incub 1h at 37°C then Irr 1h30 at 365 nm): 1 10^-2 ufc/ml
- titre bactérien E. Coli (Escherichia coli; ALA 5 mM, Incub 1h at 37°C then Irr. 1h at 365 nm): 17 10^-2 ufc/ml
- titre bactérien E. Coli (Escherichia coli; ALA 5 mM, T0, CPA 10 g/L proteins, series with incubation): 172 10^-2 ufc/ml
- titre bactérien E. Coli (Escherichia coli; ALA 5 mM, T0, without incubation): 183 10^-2 ufc/ml
- titre bactérien E. Coli (Escherichia coli; ALA 5 mM, without incubation, Irr 1 h30 at 365 nm): 2 10^-2 ufc/ml
- titre bactérien E. Coli (Escherichia coli; ALA 5 mM, without incubation, Irr. 1h at 365 nm): 48 10^-2 ufc/ml
- inactivation de E.coli (Escherichia coli; ALA (5 mM), even without incubation, irradiation at 365 nm): efficace
- inactivation de E.coli (Escherichia coli; CPA irradiated 1 h and 1 h30 at 365 nm with ALA (5 mM), after 1 h incubation at 37°C): obtenue
- % d'aggrégation (plaquettes [1]; ALA 1 mM, after 1 h30 illumination at 365 nm, collagen): 80%
- % d'aggrégation (plaquettes [1]; ALA 1 mM, no illumination, 1 h30 in the dark, collagen): 84%
- % d'aggrégation (plaquettes [1]; ALA 2 mM, after 1 h30 illumination at 365 nm, collagen): 69%
- % d'aggrégation (plaquettes [1]; ALA 2 mM, no illumination, 1 h30 in the dark, collagen): 84%
- % d'aggrégation (plaquettes [1]; ALA 3 mM, after 1 h30 illumination at 365 nm, collagen): 76%
- % d'aggrégation (plaquettes [1]; ALA 3 mM, no illumination, 1 h30 in the dark, collagen): 82%
- % d'aggrégation (plaquettes [1]; ALA 4 mM, after 1 h30 illumination at 365 nm, collagen): 53%
- % d'aggrégation (plaquettes [1]; ALA 4 mM, no illumination, 1 h30 in the dark, collagen): 76%
- % d'aggrégation (plaquettes [1]; ALA 5 mM, after 1 h30 illumination at 365 nm, collagen): 26%
- % d'aggrégation (plaquettes [1]; ALA 5 mM, no illumination, 1 h30 in the dark, collagen): 78%
- fonctionnalité des plaquettes (plaquettes [1]; illumination of CPA with too high a concentration of ALA): semble faire perdre de leur fonctionnalité aux plaquettes
- titre bactérien Klebsiella (Klebsiella pneumoniae; ALA 1 mM, Incub. 1 h at room temperature): 187 10^-2 ufc/ml
- titre bactérien Klebsiella (Klebsiella pneumoniae; ALA 1 mM, Incub. 1 h then Irr. 1h30 at 365 nm): 5 10^-2 ufc/ml
- titre bactérien Klebsiella (Klebsiella pneumoniae; ALA 1 mM, Incub. 1 h then Irr. 1 h at 365 nm): 14 10^-2 ufc/ml
- titre bactérien Klebsiella (Klebsiella pneumoniae; ALA 1 mM, T0, CPA 10 g/L proteins): 201 10^-2 ufc/ml
- titre bactérien Klebsiella (Klebsiella pneumoniae; ALA 2 mM, Incub 1 h at room temperature): 163 10^-2 ufc/ml
- titre bactérien Klebsiella (Klebsiella pneumoniae; ALA 2 mM, Incub 1 h then Irr 1 h30 at 365 nm): 1 10^-2 ufc/ml
- titre bactérien Klebsiella (Klebsiella pneumoniae; ALA 2 mM, Incub 1 h then Irr. 1 h at 365 nm): 9 10^-2 ufc/ml
- titre bactérien Klebsiella (Klebsiella pneumoniae; ALA 2 mM, T0, CPA 10 g/L proteins): 159 10^-2 ufc/ml
- titre bactérien Klebsiella (Klebsiella pneumoniae; ALA 3 mM, Incub 1 h at room temperature): 168 10^-2 ufc/ml
- titre bactérien Klebsiella (Klebsiella pneumoniae; ALA 3 mM, Incub 1 h then Irr 1 h30 at 365 nm): 1 10^-2 ufc/ml
- titre bactérien Klebsiella (Klebsiella pneumoniae; ALA 3 mM, Incub 1 h then Irr. 1 h at 365 nm): 8 10^-2 ufc/ml
- titre bactérien Klebsiella (Klebsiella pneumoniae; ALA 3 mM, T0, CPA 10 g/L proteins): 179 10^-2 ufc/ml
- titre bactérien Klebsiella (Klebsiella pneumoniae; ALA 4 mM, Incub 1h at room temperature): 192 10^-2 ufc/ml
- titre bactérien Klebsiella (Klebsiella pneumoniae; ALA 4 mM, Incub 1h then Irr 1h30 at 365 nm): 1 10^-2 ufc/ml
- titre bactérien Klebsiella (Klebsiella pneumoniae; ALA 4 mM, Incub 1h then Irr. 1h at 365 nm): 6 10^-2 ufc/ml
- titre bactérien Klebsiella (Klebsiella pneumoniae; ALA 4 mM, T0, CPA 10 g/L proteins): 183 10^-2 ufc/ml
- titre bactérien Klebsiella (Klebsiella pneumoniae; ALA 5 mM, Incub. 1h at room temperature): 175 10^-2 ufc/ml
- titre bactérien Klebsiella (Klebsiella pneumoniae; ALA 5 mM, Incub. 1h then 'Irr 1h 1h30' at 365 nm): 0 10^-2 ufc/ml
- titre bactérien Klebsiella (Klebsiella pneumoniae; ALA 5 mM, Incub. 1h then 'Irr.' at 365 nm): 4 10^-2 ufc/ml
- titre bactérien Klebsiella (Klebsiella pneumoniae; ALA 5 mM, T0, CPA 10 g/L proteins): 178 10^-2 ufc/ml
- inactivation de K. pneumoniae (Klebsiella pneumoniae; CPA irradiated 1h and 1 h30 at 365 nm with ALA 1-5 mM, no significant difference between concentrations): obtenue
- Swirling (plaquettes [2]): Faible+

Molecule: protoporphyrine IX [PpIX]
- inactivation de E.coli (Escherichia coli; PpIX 10 µM, irradiation at 365 nm): inefficace
- titre bactérien E. Coli (Escherichia coli; PpIX 10 µm, T0, without incubation): 166 10^-2 ufc/ml
- titre bactérien E. Coli (Escherichia coli; PpIX 10 µm, without incubation, Irr 1 h30 at 365 nm): 108 10^-2 ufc/ml
- titre bactérien E. Coli (Escherichia coli; PpIX 10 µm, without incubation, Irr. 1h at 365 nm): 171 10^-2 ufc/ml
- % d'aggrégation (plaquettes [1]; PpIX 1 µM, after 30 minutes illumination at 365 nm): 53%
- % d'aggrégation (plaquettes [1]; PpIX 5µM, after 30 minutes illumination at 365 nm): 16%
- % d'aggrégation (plaquettes [1]; PpIX 10 µM, after 30 minutes illumination at 365 nm): 16%
- % d'aggrégation (plaquettes [1]; PpIX 20 µM, after 30 minutes illumination at 365 nm): 15%
- inactivation de K. pneumoniae (Klebsiella pneumoniae; PpIX 10µM, same conditions (incubation 1h, irradiation 1h and 1h30 at 365 nm)): ne permet pas l'inactivation
- titre bactérien Klebsiella (Klebsiella pneumoniae; PpIX 10 µM, Incub 1h at room temperature): 162 10^-2 ufc/ml
- titre bactérien Klebsiella (Klebsiella pneumoniae; PpIX 10 µM, Incub 1h then Irr 1h30 at 365 nm): 203 10^-2 ufc/ml
- titre bactérien Klebsiella (Klebsiella pneumoniae; PpIX 10 µM, Incub 1h then Irr. 1h at 365 nm): 178 10^-2 ufc/ml
- titre bactérien Klebsiella (Klebsiella pneumoniae; PpIX 10 µM, T0, CPA 10 g/L proteins): 181 10^-2 ufc/ml
